Assays:
[1] = biological target: T1, catalytic domain (JH1, amino acids 826-1132) of human JAK2 (Homo sapiens, UniProt O60674); test: JAK2 LanthaScreen JH1 Binding Assay; conditions: JAK2 JH1 (1.5 nM), 50 nM fluorescent JAK2-JH1 tracer, 2 hours at 25° C.; read-out: JH1 BIND
T1 construct: catalytic domain (JH1, amino acids 826-1132) of human JAK2; FLAG (N); purchased Carna Biosciences 08-445-20N; host or cells: baculovirus expression system
Procedure: Example A. JAK2 LanthaScreen JH1 Binding Assay
JAK2 JH1 binding assay utilizes catalytic domain (JH1, amino acids 826-1132) of human JAK2 expressed as N-terminal FLAG-tagged, biotinylated protein in a baculovirus expression system (Carna Biosciences, Product #08-445-20N). The assay was conducted in black 384-well polystyrene plates in a final reaction volume of 20 μL. JAK2 JH1 (1.5 nM) was incubated with compounds (100 nL serially diluted in DMSO) in the presence of 50 nM fluorescent JAK2-JH1 tracer and 0.5 nM Streptavidin-Tb cryptate (Cisbio Part #610SATLB) in assay buffer (50 mM Tris, pH=7.5, 10 mM MgCl2, 0.01% Brij-35, 0.1% BSA, 1 mM EGTA, 5% Glycerol and 5 mM DTT). Non-specific binding was accessed in the presence of 2 mM ATP. After incubation for 2 hours at 25° C., LanthaScreen signals were read on a PHERAstar FS plate reader (BMG LABTECH). Data was analyzed with IDBS XLfit and GraphPad Prism 5.0 software using a four parameter dose response curve to determine IC50 for each compound.

[2] = biological target: T2, pseudo-kinase domain (JH2, amino-acids 536-812 with 3 surface mutations W659A, W777A, F794H) of human V617F mutant JAK2 (Homo sapiens, UniProt O60674, F794H/V617F/W659A/W777A); test: JAK2 LanthaScreen JH2-V617F Binding Assay; conditions: JAK2 JH2-V617F (0.26 nM), 50 nM Fluorescent JAK2-JH2 Tracer, 1 hour at 25° C.; read-out: JH2 BIND V617F
T2 construct: pseudo-kinase domain (JH2, amino-acids 536-812 with 3 surface mutations W659A, W777A, F794H); His (C); Avi (biotinylated) (C); purchased BPS Bioscience 79498; host or cells: baculovirus expression system
Procedure: Example C. JAK2 LanthaScreen JH2-V617F Binding Assay
(§1) JAK2 JH2-V617F binding assay utilizes pseudo-kinase domain (JH2, amino-acids 536-812 with 3 surface mutations W659A, W777A, F794H) of human V617F mutant JAK2 expressed as C-terminal His-Avi-tagged, biotinylated protein in a baculovirus expression system (BPS Bioscience, Catalog #79498). The assay was conducted in black 384-well polystyrene plates in a final reaction volume of 20 μL. JAK2 JH2-V617F (0.26 nM) was incubated with compounds (100 nL serially diluted in DMSO) in the presence of 50 nM Fluorescent JAK2-JH2 Tracer (MedChem Express Catalog #HY-102055) and 0.25 nM Streptavidin-Tb cryptate (Cisbio Part #610SATLB) in assay buffer (50 mM Tris, pH=7.5, 10 mM MgCl2, 0.01% Brij-35, 0.1% BSA, 1 mM EGTA, 5% Glycerol and 5 mM DTT). Non-specific binding was accessed in the presence of 2 mM ATP. After incubation for 1 hour at 25° C., LanthaScreen signals were read on a PHERAstar FS plate reader (BMG LABTECH). Data was analyzed with IDBS XLfit and GraphPad Prism 5.0 software using a four parameter dose response curve to determine IC50 for each compound.

[3] = biological target: T3, pseudo-kinase domain (JH2, amino-acids 536-812 with 3 surface mutations W659A, W777A, F794H) of human Wild Type JAK2 (Homo sapiens, UniProt O60674, F794H/W659A/W777A); test: JAK2 LanthaScreen JH2-WT Binding Assay; conditions: JAK2 JH2-WT (0.145 nM), 50 nM Fluorescent JAK2-JH2 Tracer, 1 hour at 25° C.; read-out: JH2 BIND WT
T3 construct: pseudo-kinase domain (JH2, amino-acids 536-812 with 3 surface mutations W659A, W777A, F794H); His (C); Avi (biotinylated) (C); purchased BPS Bioscience 79463; host or cells: baculovirus expression system
Procedure: Example B. JAK2 LanthaScreen JH2-WT Binding Assay
as §1, with “JH2-WT” for “JH2-V617F”, “Wild Type” for “V617F mutant”, “#79463).” for “#79498).”, “JH2-WT (0.145” for “JH2-V617F (0.26”

T2 sequence (O60674 536-812 V617F/W659A/W777A/F794H): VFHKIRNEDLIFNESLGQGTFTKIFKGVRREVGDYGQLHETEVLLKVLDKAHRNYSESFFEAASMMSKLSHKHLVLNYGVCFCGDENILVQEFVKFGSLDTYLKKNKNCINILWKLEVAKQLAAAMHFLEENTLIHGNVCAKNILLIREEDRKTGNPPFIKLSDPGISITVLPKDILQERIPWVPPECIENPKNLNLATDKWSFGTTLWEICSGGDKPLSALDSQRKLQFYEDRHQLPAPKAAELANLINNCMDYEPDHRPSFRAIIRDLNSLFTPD
T1 sequence (O60674 826-1132): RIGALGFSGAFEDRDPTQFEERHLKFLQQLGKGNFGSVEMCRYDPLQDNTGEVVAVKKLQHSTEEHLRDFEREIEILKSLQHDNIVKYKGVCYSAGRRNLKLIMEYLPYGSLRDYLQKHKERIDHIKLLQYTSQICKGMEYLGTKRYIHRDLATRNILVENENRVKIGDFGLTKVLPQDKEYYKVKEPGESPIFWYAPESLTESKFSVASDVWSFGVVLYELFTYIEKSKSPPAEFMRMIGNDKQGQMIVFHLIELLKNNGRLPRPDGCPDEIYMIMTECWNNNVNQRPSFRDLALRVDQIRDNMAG
T3 sequence (O60674 536-812 W659A/W777A/F794H): as the sequence (O60674 536-812 V617F/W659A/W777A/F794H) above, with F82V counted along it

SMILES | IC50 [1] | IC50 [2] | IC50 [3]
CC(C)n1c(=O)n(C)c2cnc3[nH]c(-c4ccc(CN5CCC(S(C)(=O)=O)CC5)cc4)c(-c4ccc(C5(C#N)CC5)cc4)c3c21 [Example 26, 1-(4-(1-Isopropyl-3-methyl-7-(4-((4-(methylsulfonyl)piperidin-1-yl)methyl)phenyl)-2-oxo-1,2,3,6-tetrahydroimidazo [4,5-d]pyrrolo[2,3-b]pyridin-8-yl)phenyl) cyclopropane-1-carbonitrile] | > 1000 nM | ≤ 10 nM | ≤ 10 nM
CC(C)n1c(=O)n(C)c2cnc3[nH]c(-c4ccc(CN5CCC(S(C)(=O)=O)CC5)cc4)c(-c4cnn(Cc5ccc(C(=O)O)cc5)c4)c3c21 [Example 27, 4-((4-(1-Isopropyl-3-methyl-7-(4-((4-(methylsulfonyl)piperidin-1-yl)methyl)phenyl)-2-oxo-1,2,3,6-tetrahydroimidazo [4,5-d]pyrrolo[2,3-b]pyridin-8-yl)-1H-pyrazol-1-yl)methyl)benzoic acid] | 100 to 500 nM | ≤ 10 nM | ≤ 10 nM
Cn1c(=O)n(C2CCCC2)c2c3c(-c4ccccc4)c(-c4ccc(CN5CCC(S(C)(=O)=O)CC5)cc4)[nH]c3ncc21 [Example 28, 1-Cyclopentyl-3-methyl-7-(4-((4-(methylsulfonyl)piperidin-1-yl)methyl)phenyl)-8-phenyl-3,6-dihydroimidazo[4,5-d]pyrrolo[2,3-b]pyridin-2(1H)-one] | 100 to 500 nM | ≤ 10 nM | ≤ 10 nM
Cn1c(=O)n(C2CCCC2)c2c3c(-c4ccccc4)c(-c4cnn(CS(C)(=O)=O)c4)[nH]c3ncc21 [Example 29, 1-Cyclopentyl-3-methyl-7-(1-((methylsulfonyl)methyl)-1H-pyrazol-4-yl)-8-phenyl-3,6-dihydroimidazo[4,5-d]pyrrolo[2,3-b]pyridin-2(1H)-one] | 100 to 500 nM | ≤ 10 nM | ≤ 10 nM
Cn1c(=O)n(C2CCCC2)c2c3c(-c4ccc(C5(C#N)CC5)cc4)c(-c4ccc(CN5CCC(S(C)(=O)=O)CC5)cc4)[nH]c3ncc21 [Example 30, 1-(4-(1-Cyclopentyl-3-methyl-7-(4-((4-(methylsulfonyl)piperidin-1-yl)methyl)phenyl)-2-oxo-1,2,3,6-tetrahydroimidazo [4,5-d]pyrrolo[2,3-b]pyridin-8-yl)phenyl)cyclo-propane-1-carbonitrile] | 100 to 500 nM | ≤ 10 nM | ≤ 10 nM
Cn1c(=O)n(C2CCCC2)c2c3c(-c4ccc(C5(C#N)CC5)cc4)c(-c4cnn(CS(C)(=O)=O)c4)[nH]c3ncc21 [Example 31, 1-(4-(1-Cyclopentyl-3-methyl-7-(1-((methylsulfonyl)methyl)-1H-pyrazol-4-yl)-2-oxo-1,2,3,6-tetrahydroimidazo [4,5-d]pyrrolo[2,3-b]pyridin-8-yl)phenyl)cyclo-propane-1-carbonitrile] | 100 to 500 nM | ≤ 10 nM | ≤ 10 nM
COC1CC=C(c2c(-c3ccc(CN4CCC(S(C)(=O)=O)CC4)cc3)[nH]c3ncc4c(c23)n(C2CCCC2)c(=O)n4C)CC1 (stereo not drawn) [Example 32, 1-Cyclopentyl-8-(4-methoxycyclohex-1-en-1-yl)-3-methyl-7-(4-((4-(methylsulfonyl)piperidin-1-yl)methyl)phenyl)-3,6-dihydroimidazo[4,5-d]pyrrolo[2,3-b] pyridin-2(1H)-one] | 10 to 100 nM | ≤ 10 nM | ≤ 10 nM
Cn1c(=O)n(C2CCCC2)c2c3c(C4=CCOCC4)c(-c4ccc(CN5CCC(S(C)(=O)=O)CC5)cc4)[nH]c3ncc21 [Example 33, 1-Cyclopentyl-8-(3,6-dihydro-2H-pyran-4-yl)-3-methyl-7-(4-((4-(methylsulfonyl)piperidin-1-yl)methyl)phenyl)-3,6-dihydroimidazo[4,5-d]pyrrolo[2,3-b] pyridin-2(1H)-one] | 10 to 100 nM | ≤ 10 nM | ≤ 10 nM
Cn1c(=O)n(C)c2c3c(C4CC4)c(-c4ccc(CN5CCC(S(C)(=O)=O)CC5)cc4)[nH]c3ncc21 [Example 34] | 500 to 1000 nM | > 1000 nM | 500 to 1000 nM
COc1ccc(-c2c(-c3ccc(CN4CCC(S(C)(=O)=O)CC4)cc3)[nH]c3ncc4c(c23)n(C)c(=O)n4C)cn1 [Example 35, 8-(6-Methoxypyridin-3-yl)-1,3-dimethyl-7-(4-((4-(methylsulfonyl)piperidin-1-yl)methyl)phenyl)-3,6-dihydroimidazo[4,5-d]pyrrolo[2,3-b]pyridin-2(1H)-one] | > 1000 nM | 100 to 500 nM | 100 to 500 nM
CC(C)n1c(=O)n(C)c2cnc3[nH]c(-c4cnn(Cc5ccncc5)c4)c(-c4ccc(C#N)cc4)c3c21 [Example 36, 4-(1-Isopropyl-3-methyl-2-oxo-7-(1-(pyridin-4-ylmethyl)-1H-pyrazol-4-yl)-1,2,3,6-tetrahydroimidazo [4,5-d]pyrrolo[2,3-b]pyridin-8-yl)benzonitrile] | 100 to 500 nM | ≤ 10 nM | ≤ 10 nM
CC(=O)N1CCN(c2ccc(-c3[nH]c4ncc5c(c4c3-c3ccc(C#N)cc3)n(C(C)C)c(=O)n5C)cc2)CC1 [Example 37, 4-(7-(4-(4-Acetylpiperazin-1-yl)phenyl)-1-isopropyl-3-methyl-2-oxo-1,2,3,6-tetrahydroimidazo [4,5-d]pyrrolo[2,3-b]pyridin-8-yl) benzonitrile] | > 1000 nM | ≤ 10 nM | ≤ 10 nM
CC(C)n1c(=O)n(C)c2cnc3[nH]c(C4=CCOCC4)c(-c4ccc(C#N)cc4)c3c21 [Example 38, 4-(7-(3,6-Dihydro-2H-pyran-4-yl)-1-isopropyl-3-methyl-2-oxo-1,2,3,6-tetrahydroimidazo [4,5-d]pyrrolo[2,3-b]pyridin-8-yl)benzonitrile] | > 1000 nM | 10 to 100 nM | 10 to 100 nM
CC(C)n1c(=O)n(C)c2cnc3[nH]c(C4CC4)c(-c4ccc(C#N)cc4)c3c21 [Example 39] | > 1000 nM | 10 to 100 nM | 10 to 100 nM
Cn1c(=O)n(C)c2c3c(-c4ccccc4)c(-c4cccnc4)[nH]c3ncc21 [Example 40, 1,3-Dimethyl-8-phenyl-7-(pyridin-3-yl)-3,6-dihydroimidazo[4,5-d]pyrrolo[2,3-b]pyridin-2(1H)-one] | > 1000 nM | > 1000 nM | 500 to 1000 nM
Cn1c(=O)n(C)c2c3c(-c4ccccc4)c(C4CCNCC4)[nH]c3ncc21 [Example 41, 1,3-Dimethyl-8-phenyl-7-(piperidin-4-yl)-3,6-dihydroimidazo[4,5-d]pyrrolo[2,3-b]pyridin-2(1H)-one] | > 1000 nM | > 1000 nM | > 1000 nM
